The results in this text go back to ChEMBL document CHEMBL2086319, “From the first selective non-peptide AT(2) receptor agonist to structurally related antagonists” (J Med Chem, 2012).

As usually defined, the pKi is −log10 of the Ki, conventionally taken in molar units. Higher therefore signals a small Ki.

Assay [1] is described as follows: Displacement of [125I]Ang 2 from pig uterus membrane AT2 receptor after 1.5 hrs by micro-counter. Further details: species or system Sus scrofa. A general note: Loss of bound radioactivity is the signal in a displacement assay; it reports binding, not function.
Assay [2] in a line: Displacement of [125I]Ang 2 from rat liver membrane AT1 receptor after 2 hrs by micro-counter.
The test system of assay [3] is NG108-15. As to the kind of experiment: Effect on neurite outgrowth in mouse/rat NG108-15 cells assessed as morphological changes at 10 uM after 3 days by phase contrast microscopy. Type of assay: functional, cell-based.
Assay [4] has as its system NG108-15. As to the kind of experiment: Induction of neurite outgrowth in mouse/rat NG108-15 cells at 1 nM after 3 days by phase contrast microscopy in presence of PD123,319. Type of assay: functional, cell-based.
The test system of assay [5] is NG108-15. As to the kind of experiment: Inhibition of Ang 2-induced neurite outgrowth in mouse/rat NG108-15 cells at 10 nM after 3 days by phase contrast microscopy. The format is functional, cell-based.
For assay [6], the system named is NG108-15. As to the kind of experiment: Induction of neurite outgrowth in mouse/rat NG108-15 cells at 10 nM after 3 days by phase contrast microscopy in presence of PD123,319. The format is functional, cell-based.
In assay [7] the test system is NG108-15. As to the kind of experiment: Induction of neurite outgrowth in mouse/rat NG108-15 cells at 10 nM after 3 days by phase contrast microscopy. The format is functional, cell-based.

pKi: −log10 of the molar value. Active and inactive are the calls of the source. No cut-off for these calls is given here. Where only a bound is given, the exact number is not on record here.

As for `CCCCOC(=O)NS(=O)(=O)c1sc(CC(C)C)cc1-c1cccc(Cn2cccn2)c1`, the pKi was 6.96 in assay [1] and less than 5.00 in assay [2].

Take `CCCCOC(=O)NS(=O)(=O)c1sc(CC(C)C)cc1-c1cccc(CN(Cc2ccccc2)C(=O)c2cccs2)c1`: the pKi in assay [1] was 6.17; in assay [2], less than 5.00.

`CCCCOC(=O)NS(=O)(=O)c1sc(CC(C)C)cc1-c1cccc(Cn2ccnc2-c2ccccn2)c1`: the pKi in assay [1] is 7.55; in assay [2] it was less than 5.00.

`CCCCOC(=O)NS(=O)(=O)c1sc(CC(C)C)cc1-c1cccc(CN(C(=O)c2ccccc2)c2ccc(C)cc2)c1`: the pKi was 7.34 in assay [1] and less than 5.00 in assay [2].

As for `CCCCOC(=O)NS(=O)(=O)c1sc(CC(C)C)cc1-c1cccc(CCn2ccnc2)c1`, the figures for the pKi in assay [1] and in assay [2] were 6.93 and less than 5.00, respectively.

As to `CCCCOC(=O)NS(=O)(=O)c1sc(CC(C)C)cc1-c1cccc(CN(CC(F)(F)F)C(=O)C2CC2)c1`, the figures for the pKi in assay [1] and in assay [2] were 6.79 and less than 5.00, respectively.

Consider `CCCCOC(=O)NS(=O)(=O)c1sc(CC(C)C)cc1-c1cccc(CN(C)C=O)c1`, for which the pKi in assay [1] is 7.26; in assay [2], less than 5.00.

With `Cc1cc(Cn2cnc3c2C[C@@H](C(=O)O)N(C(=O)C(c2ccccc2)c2ccccc2)C3)ccc1N(C)C`, the result in the assay on NG108-15 [3] was inactive.

With `CCCCOC(=O)NS(=O)(=O)c1sc(CC(C)C)cc1-c1cccc(CN(CC(F)(F)F)C(C)=O)c1`, the negative logarithm of the Ki (pKi) in assay [1] is 7.14; in assay [2], less than 5.00.

With `CCCCOC(=O)NS(=O)(=O)c1sc(CC(C)C)cc1-c1cccc(CN(Cc2ccccc2)C(C)=O)c1`, the pKi in assay [1] was 7.10; in assay [2], less than 5.00.

Turning to `CCCCOC(=O)NS(=O)(=O)c1sc(CC(C)C)cc1-c1cccc(CN(C(C)=O)c2ccc(C)cc2)c1`, the pKi in assay [1] is 6.92; in assay [2], less than 5.00.

Consider `CCCCOC(=O)NS(=O)(=O)c1sc(CC(C)C)cc1-c1cccc(CN(C)C(=O)C(=O)OCC)c1`, for which the result with NG108-15 [4] was Active. In addition, the values for the pKi in assay [1] and in assay [2] were 8.80 and less than 5.00, respectively.

Take `CCCCOC(=O)NS(=O)(=O)c1sc(CC(C)C)cc1-c1cccc(CN(CC)S(=O)(=O)c2cccs2)c1`: the pKi is 6.88 in assay [1] and less than 5.00 in assay [2].

Turning to `CCCCOC(=O)NS(=O)(=O)c1sc(CC(C)C)cc1-c1cccc(CN(C)C(=O)CCCC)c1`, the values for the pKi in assay [1] and in assay [2] were 7.25 and less than 5.00, respectively.

On to `CCCCOC(=O)NS(=O)(=O)c1sc(CC(C)C)cc1-c1cccc(CN(Cc2cccnc2)C(=O)c2ccccc2)c1`, for which the pKi is 7.33 in assay [1] and less than 5.00 in assay [2]. Also, the inhibition entry in the assay on NG108-15 [5] was “Active”.

For the compound `CCCCOC(=O)NS(=O)(=O)c1sc(CC(C)C)cc1-c1cccc(Cn2ccnc2-c2cccs2)c1`, the pKi is 7.55 in assay [1] and less than 5.00 in assay [2].

Turning to `CCCCOC(=O)NS(=O)(=O)c1sc(CC(C)C)cc1-c1cccc(Cn2ccc(C(F)(F)F)n2)c1`, the pKi was 6.63 in assay [1] and less than 5.00 in assay [2].

Consider `CCCCOC(=O)NS(=O)(=O)c1sc(CC(C)C)cc1-c1cccc(Cn2ccnc2Cl)c1`, for which the result in the assay on NG108-15 [6] was Active. The figures for the pKi in assay [1] and in assay [2] were 8.04 and less than 5.00, respectively. For the same compound, the inhibition result with NG108-15 [5] is “Active”. For the same compound, in the assay on NG108-15 [7], the result was inactive.

Consider `CCCCOC(=O)NS(=O)(=O)c1sc(CC(C)C)cc1-c1cccc(CN(CC)C(=O)c2cccs2)c1`, for which the pKi in assay [1] is 8.66; in assay [2], less than 5.00.

With `CCCCOC(=O)NS(=O)(=O)c1sc(CC(C)C)cc1-c1cccc(Cn2cnc3ccccc32)c1`, the pKi in assay [1] is 7.49; in assay [2], less than 5.00.

On to `CCCCOC(=O)NS(=O)(=O)c1sc(CC(C)C)cc1-c1cccc(Cn2ccnc2C(C)=O)c1`, for which the pKi in assay [1] is 7.77; in assay [2] it was less than 5.00.

Turning to `CCCCOC(=O)NS(=O)(=O)c1sc(CC(C)C)cc1-c1cccc(CN(CC)C(C)=O)c1`, the pKi in assay [1] is 7.54; in assay [2] it was less than 5.00.

`CCCCOC(=O)NS(=O)(=O)c1sc(CC(C)C)cc1-c1cccc(Cn2ccnc2-c2ccsc2)c1`: the pKi in assay [1] is 7.48; in assay [2], less than 5.00.

For `CCCCOC(=O)NS(=O)(=O)c1sc(CC(C)C)cc1-c1cccc(CN(Cc2ccccc2)C(=O)CCCC)c1`, the pKi in assay [1] is 7.46; in assay [2] it was less than 5.00.

On to `CCCCOC(=O)NS(=O)(=O)c1sc(CC(C)C)cc1-c1cccc(Cn2ccnc2CC)c1`, for which the pKi in assay [1] is 8.10; in assay [2], less than 5.00.

Consider `CCCCOC(=O)NS(=O)(=O)c1sc(CC(C)C)cc1-c1cccc(Cn2ccnc2-c2ccccc2)c1`, for which the results for the pKi in assay [1] and in assay [2] were 7.17 and less than 5.00, respectively.

Take `CCCCOC(=O)NS(=O)(=O)c1sc(CC(C)C)cc1-c1cccc(CN(C)C(=O)c2cccs2)c1`: the pKi in assay [1] is 7.89; in assay [2], less than 5.00.

Consider `CCCCOC(=O)NS(=O)(=O)c1sc(CC(C)C)cc1-c1cccc(CN(C)C(=O)OCC)c1`, for which the values for the pKi in assay [1] and in assay [2] were 7.35 and less than 5.00, respectively.

Turning to `CCCCOC(=O)NS(=O)(=O)c1sc(CC(C)C)cc1-c1cccc(CN(Cc2cccnc2)C(C)=O)c1`, the pKi in assay [1] was 7.08; in assay [2] it was less than 5.00.

In the case of `CCCCOC(=O)NS(=O)(=O)c1sc(CC(C)C)cc1-c1cccc(Cn2ccnc2C)c1`, the pKi in assay [1] is 7.54; in assay [2], less than 5.00.

Take `CCCCOC(=O)NS(=O)(=O)c1sc(CC(C)C)cc1-c1cccc(CN(C)C(C)=O)c1`: the pKi in assay [1] was 7.54; in assay [2], less than 5.00.

As for `CCCCOC(=O)NS(=O)(=O)c1sc(CC(C)C)cc1-c1cccc(Cn2cnc3ncccc32)c1`, the pKi in assay [1] is 7.36; in assay [2] it was less than 5.00.

As to `CCCCOC(=O)NS(=O)(=O)c1sc(CC(C)C)cc1-c1cccc(CN2C(=O)CCC2=O)c1`, the pKi in assay [1] was 6.83; in assay [2], less than 5.00.

For `CCCCOC(=O)NS(=O)(=O)c1sc(CC(C)C)cc1-c1cccc(C(=O)Cn2cnc3ccccc32)c1`, the result in the assay with NG108-15 [6] was Active. The pKi is 7.70 in assay [1] and less than 5.00 in assay [2]. Moreover, the inhibition entry in the assay on NG108-15 [5] is “Active”. Also, in the assay on NG108-15 [7], the result was inactive.

In the case of `CCCCOC(=O)NS(=O)(=O)c1sc(CC(C)C)cc1-c1cccc(Cn2ccnc2CCCC)c1`, the pKi is 8.00 in assay [1] and less than 5.00 in assay [2].

As to `CCCCOC(=O)NS(=O)(=O)c1sc(CC(C)C)cc1-c1cccc(Cn2cnc3cccnc32)c1`, the pKi is 7.18 in assay [1] and less than 5.00 in assay [2].

As to `CCCCOC(=O)NS(=O)(=O)c1sc(CC(C)C)cc1-c1cccc(CN2CCCC2=O)c1`, the pKi in assay [1] is 6.65; in assay [2], less than 5.00.

As for `CCCCOC(=O)NS(=O)(=O)c1sc(CC(C)C)cc1-c1cccc(CN(C)S(C)(=O)=O)c1`, the pKi in assay [1] and in assay [2] was less than 5.00 in each case.

As for `CCCCOC(=O)NS(=O)(=O)c1sc(CC(C)C)cc1-c1cccc(CN2C(=O)CN(C)C2=O)c1`, the pKi in assay [1] was 7.43; in assay [2] it was less than 5.00.
